Assay results reported in paper PMC8159961, “Exploring protein hotspots by optimized fragment pharmacophores” (Nature Communications, 2021).

How the values were obtained:
human 5-HT1A receptor = target: T1, human 5-HT1A receptor (Homo sapiens, UniProt P08908); assay: GPCR radioligand binding assay, [3H]-8-OH-DPAT displacement, HEK293 membranes; conditions: for %inh 5-HT1A average: average of exp_1 and exp_2; for %inh 5-HT1A corrected*: average, values below 0 and above 100% were set as 0 and 100; for %inh 5-HT1A exp_1: replicate exp_1; for %inh 5-HT1A exp_2: replicate exp_2; for 5-HT1A % Inhibition by plate position: 10 µM
T1 construct: expressed in transfected cells
T1 sequence (P08908 1-422): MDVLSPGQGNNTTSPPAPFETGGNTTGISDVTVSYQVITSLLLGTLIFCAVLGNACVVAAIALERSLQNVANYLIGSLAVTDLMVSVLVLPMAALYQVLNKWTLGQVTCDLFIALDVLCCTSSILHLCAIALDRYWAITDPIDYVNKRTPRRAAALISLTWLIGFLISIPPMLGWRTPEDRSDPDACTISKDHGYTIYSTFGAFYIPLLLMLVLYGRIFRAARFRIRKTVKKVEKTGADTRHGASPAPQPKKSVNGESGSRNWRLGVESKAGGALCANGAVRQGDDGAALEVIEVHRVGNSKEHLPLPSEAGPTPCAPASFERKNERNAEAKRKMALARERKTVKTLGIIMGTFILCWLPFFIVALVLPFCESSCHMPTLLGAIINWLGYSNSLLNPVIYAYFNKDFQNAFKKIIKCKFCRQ

human 5-HT6 receptor = target: T2, human 5-HT6 receptor (Homo sapiens, UniProt P50406); assay: GPCR radioligand binding assay, [3H]-LSD displacement, HEK293 membranes; conditions: for 5-HT6 % Inhibition by plate position: 10 µM; for %inh 5-HT6 average: average of exp_1 and exp_2; for %inh 5-HT6 corrected*: average, values below 0 and above 100% were set as 0 and 100; for %inh 5-HT6 exp_1: replicate exp_1; for %inh 5-HT6 exp_2: replicate exp_2
T2 construct: expressed in transfected cells

human 5-HT7b receptor = target: T3, human 5-HT7b receptor (Homo sapiens, UniProt P34969); assay: GPCR radioligand binding assay, [3H]-5-CT displacement, HEK293 membranes; conditions: for 5-HT7 % Inhibition by plate position: 10 µM; for %inh 5-HT7 average: average of exp_1 and exp_2; for %inh 5-HT7 exp_1: replicate exp_1; for %inh 5-HT7 exp_2: replicate exp_2
T3 construct: expressed in transfected cells
T3 sequence (P34969 1-432): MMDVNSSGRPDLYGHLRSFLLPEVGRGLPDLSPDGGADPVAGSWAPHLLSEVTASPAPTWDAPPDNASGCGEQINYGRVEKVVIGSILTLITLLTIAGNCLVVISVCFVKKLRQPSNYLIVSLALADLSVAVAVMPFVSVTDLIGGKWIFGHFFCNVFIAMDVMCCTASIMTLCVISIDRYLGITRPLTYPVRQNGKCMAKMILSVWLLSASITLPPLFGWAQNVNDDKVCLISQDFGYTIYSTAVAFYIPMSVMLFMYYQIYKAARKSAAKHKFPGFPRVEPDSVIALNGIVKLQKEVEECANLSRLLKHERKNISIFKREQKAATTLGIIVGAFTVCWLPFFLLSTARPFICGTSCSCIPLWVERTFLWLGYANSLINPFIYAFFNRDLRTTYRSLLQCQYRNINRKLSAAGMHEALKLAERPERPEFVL

T2 sequence (P50406 whole entry): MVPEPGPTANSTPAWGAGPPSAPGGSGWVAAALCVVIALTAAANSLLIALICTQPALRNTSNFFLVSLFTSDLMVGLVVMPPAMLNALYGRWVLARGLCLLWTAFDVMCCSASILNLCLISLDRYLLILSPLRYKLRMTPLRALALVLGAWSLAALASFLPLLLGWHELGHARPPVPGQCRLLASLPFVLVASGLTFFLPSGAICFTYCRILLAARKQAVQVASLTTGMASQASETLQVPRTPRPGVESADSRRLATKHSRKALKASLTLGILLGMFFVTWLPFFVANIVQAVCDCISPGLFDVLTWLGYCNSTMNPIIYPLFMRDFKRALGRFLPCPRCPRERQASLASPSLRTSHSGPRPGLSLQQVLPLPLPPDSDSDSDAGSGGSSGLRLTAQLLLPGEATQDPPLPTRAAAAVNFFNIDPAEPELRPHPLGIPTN

SMILES | %inh 5-HT1A average (human 5-HT1A receptor) | %inh 5-HT1A corrected* (human 5-HT1A receptor) | %inh 5-HT1A exp_1 (human 5-HT1A receptor) | %inh 5-HT1A exp_2 (human 5-HT1A receptor) | 5-HT6 % Inhibition by plate position (human 5-HT6 receptor) | %inh 5-HT6 average (human 5-HT6 receptor) | %inh 5-HT6 corrected* (human 5-HT6 receptor) | %inh 5-HT6 exp_1 (human 5-HT6 receptor) | %inh 5-HT6 exp_2 (human 5-HT6 receptor) | 5-HT7 % Inhibition by plate position (human 5-HT7b receptor) | %inh 5-HT7 average (human 5-HT7b receptor) | %inh 5-HT7 exp_1 (human 5-HT7b receptor) | %inh 5-HT7 exp_2 (human 5-HT7b receptor) | 5-HT1A % Inhibition by plate position (human 5-HT1A receptor)
O=C(NC1CC1)c1ccccc1O [G4] | 1.71% | 1.71% | 3.42% | 0% | 24% | 24% | 24% | 28% | 20% | 0% | -12% | 1.81% | -25% | –
CN1CC(=O)NC1=O [B10] | -4.34% | – | 4% | -13% | 35% | 35% | 35% | 31% | 40% | 0% | -7.6% | -15% | 0% | 0%
Cc1cc(C)c2c(=O)[nH]n(C)c2n1 [F12] | 5.64% | 5.64% | 4.73% | 6.55% | 34% | 34% | 34% | 35% | 32% | 11% | – | 14% | 7% | –
COc1ccc(C2=CCNCC2)cc1 [G1] | 17% | 17% | 14% | 20% | 49% | 49% | 49% | 49% | 49% | 19% | – | 17% | 20% | –
Oc1ccc(-n2cncn2)cc1 [H5] | -1.29% | – | -9% | 6% | 36% | 36% | 36% | 39% | 32% | 25% | – | 29% | 21% | 0%
O=C(c1ccncc1)N1CCNCC1 [E2] | 3.69% | 3.69% | 13% | -6% | 24% | 24% | 24% | 15% | 33% | 3.34% | – | 1.81% | 5% | –
CCc1nccn1CC(=O)O [G11] | 8.43% | 8.43% | 3.26% | 14% | 0% | -2% | 0% | -9% | 5% | 0% | -3.32% | -14% | 8% | –
O=C1CCCc2occc21 [B3] | -4.51% | – | -9% | 0% | 34% | 34% | 34% | 37% | 30% | 0% | -2.76% | 8% | -14% | 0%
O=C1CCN(c2ccccn2)CC1 [G8] | -7% | – | 4% | -18% | 7% | 7% | 7% | 0% | 15% | 29% | – | 34% | 24% | 0%
O=C(Nc1ccccc1)C1CC1 [F6] | 12% | 12% | 10% | 14% | 41% | 41% | 41% | 40% | 42% | 0% | -2.69% | -1.55% | -4% | –
N#Cc1ccc(C(=O)N2CCOCC2)cc1 [E10] | -13% | – | -3% | -23% | 37% | 37% | 37% | 33% | 41% | 9% | – | 10% | 7% | 0%
O=C1CCN(c2ccncc2)CC1 [G7] | 0.831% | 0.831% | -1.88% | 3.54% | 7% | 7% | 7% | 7.61% | 7% | 3.28% | – | -1.58% | 8% | –
Nc1ccc(-c2ccccc2)cc1C(=O)O [G9] | 15% | 15% | 13% | 18% | 37% | 37% | 37% | 34% | 40% | 15% | – | 16% | 14% | –
C1=C[C@H]2O[C@@H]1c1ccccc12 [C11] | -11% | – | -11% | -11% | 46% | 46% | 46% | 42% | 50% | 0% | -8% | -5.66% | -11% | 0%
Cc1cc(-c2ccccc2)n[nH]1 [A8] | 9% | 9% | 9% | 9% | 48% | 48% | 48% | 44% | 52% | 34% | – | 37% | 32% | –
CCn1cnc2ccccc21 [D4] | -8% | – | -16% | 0% | 23% | 23% | 23% | 23% | 23% | 0% | -5.34% | 1.55% | -12% | 0%
COc1ccccc1C1CCNCC1 [A11] | 99% | 99% | 100% | 98% | 71% | 71% | 71% | 82% | 59% | 73% | – | 64% | 81% | –
Fc1ccc(CC2CCCNC2)cc1 (stereo not shown) [C1] | 21% | 21% | 23% | 19% | 42% | 42% | 42% | 47% | 37% | 22% | – | 27% | 18% | –
c1ccc2c(N3CCNCC3)ccnc2c1 [C4] | 81% | 81% | 78% | 83% | 72% | 72% | 72% | 71% | 72% | 16% | – | 17% | 15% | –
